From patent US11186577B2, “Vasopressin receptor antagonists and products and methods related thereto” (BlackThorn Therapeutics, Inc., priority 2017, dated 2021)

Columns and labels:
[1] = molecular target: human Arginine Vasopressin Receptor 1a (AVPR1a) (Homo sapiens (Human), UniProt P37288); assay: Vasopressin V1A receptor antagonist assay (AVP-evoked calcium, FLIPR, CHO-AVPR1a cells); type: cell-based; conditions: read-out: V1a IC50
How it was run: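 Antagonism measured as reduction of AVP (EC80, set each assay day) calcium response on FLIPR in dye-loaded CHO-AVPR1a cells. Compounds, 3 μM top in 10-point 1:3 dilution, in duplicate, added 15 min before agonist at 37° C.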

[2] = molecular target: human Arginine Vasopressin Receptor V2 (AVPR2) (Homo sapiens (Human), UniProt P30518); assay: Vasopressin V2 receptor antagonist assay (cAMP TR-FRET, 1321N1 cells); type: cell-based
Experimental: The purpose of the assay was to determine the inhibitory effect of synthesized compounds on the Vasopressin receptor 2. […] Arginine Vasopressin (AVP) evokes an increase in intracellular cAMP in these cells which is measured in a TR-FRET assay using a Europium cAMP tracer and ULight labelled antibody reagents contained in a LANCE Ultra cAMP kit (Perkin Elmer #TRF0263). […] Test compounds were assessed for their ability to affect the magnitude of the response to AVP, with antagonists showing a concentration-dependent decrease in the AVP-mediated reduction in TR-FRET signal.
cAMPZen V2 assay ready cells were thawed at 37° C. and resuspended directly from frozen in 9 ml growth medium consisting of DMEM supplemented with 10% v/v fetal bovine serum, 1× non-essential amino acids, and 1 mM sodium pyruvate. Cells were spun at 1000 rpm for 3 minutes and the supernatant was carefully removed and discarded. The pellet was resuspended in 5 ml stimulation buffer and the cell density determined using the Vi-Cell automated cell counter. The cell suspension was diluted to a 0.2×10^6/ml suspension ready for plating. […] Stimulation buffer consisted of HBSS (+Ca/+Mg) supplemented with 5 mM HEPES, 0.1% BSA stabiliser and 0.5 mM IBMX.
At the start of each assay day the potency of AVP was assessed and an EC80 concentration determined for subsequent compound profiling. Assays were performed by first an addition of 2.5 μl of control or test compound at 4× final concentration in stimulation buffer followed by 2.5 μl of AVP at 4× final concentration in stimulation buffer. After a 1 hour reaction, detection reagents were added by first an addition of 5 μl EU-cAMP tracer, followed by 5 μl ULight-anti-cAMP both diluted as per the manufacturer's instructions. […] For compound profiling, test compounds were dispensed by the Labcyte Echo (10-point curve, 1:3 dilutions) in a target 0.1 μl volume then diluted 750-fold in stimulation buffer containing 3% DMSO prior to addition to the cells. At the end of the incubation period, 2.5 μl of AVP in stimulation buffer was added at the previously determined EC80 concentration.

[3] = system: MDR1 (P-gp); assay: in vitro; conditions: dog, MDCK-MDR1
[4] = molecular target: human Oxytocin Receptor (hOTR) (Homo sapiens (Human), UniProt P30559); assay: Oxytocin receptor antagonist assay (oxytocin-evoked calcium, FLIPR, CHEM-1-hOTR cells); type: cell-based; conditions: read-out: OT IC50
How it was run: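 Oxytocin-evoked intracellular calcium rise measured by FLIPR^TETRA fluorescence (Calcium-6 dye, 3 min read) in CHEM-1-hOTR cells. Test compounds, 10-point 1:3 dilutions, were added 15 min at 37 °C before an EC80 oxytocin challenge (EC80 set each assay day); buffer HBSS with 20 mM HEPES.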

Chain of human Oxytocin Receptor (hOTR) (P30559 whole entry): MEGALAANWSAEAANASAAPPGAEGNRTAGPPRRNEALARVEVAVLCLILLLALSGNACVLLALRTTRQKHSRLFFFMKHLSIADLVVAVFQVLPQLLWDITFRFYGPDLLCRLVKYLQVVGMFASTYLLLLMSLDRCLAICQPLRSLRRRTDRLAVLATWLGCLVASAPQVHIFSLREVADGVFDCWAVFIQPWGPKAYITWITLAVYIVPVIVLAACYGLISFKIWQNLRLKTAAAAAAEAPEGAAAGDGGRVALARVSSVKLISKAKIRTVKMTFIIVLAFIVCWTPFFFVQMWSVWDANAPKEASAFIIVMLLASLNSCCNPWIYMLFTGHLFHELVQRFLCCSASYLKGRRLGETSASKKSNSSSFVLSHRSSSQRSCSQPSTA
Chain of human Arginine Vasopressin Receptor V2 (AVPR2) (P30518 whole entry): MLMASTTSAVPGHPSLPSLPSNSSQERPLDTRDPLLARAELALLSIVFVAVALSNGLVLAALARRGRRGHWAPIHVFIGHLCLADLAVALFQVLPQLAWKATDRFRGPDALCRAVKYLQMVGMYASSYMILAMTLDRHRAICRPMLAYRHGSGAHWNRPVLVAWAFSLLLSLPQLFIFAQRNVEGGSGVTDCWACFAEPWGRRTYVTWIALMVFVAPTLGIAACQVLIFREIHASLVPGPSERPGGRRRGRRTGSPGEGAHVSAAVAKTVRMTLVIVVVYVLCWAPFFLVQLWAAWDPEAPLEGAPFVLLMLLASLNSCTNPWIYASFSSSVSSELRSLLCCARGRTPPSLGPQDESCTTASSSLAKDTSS
Chain of human Arginine Vasopressin Receptor 1a (AVPR1a) (P37288 whole entry): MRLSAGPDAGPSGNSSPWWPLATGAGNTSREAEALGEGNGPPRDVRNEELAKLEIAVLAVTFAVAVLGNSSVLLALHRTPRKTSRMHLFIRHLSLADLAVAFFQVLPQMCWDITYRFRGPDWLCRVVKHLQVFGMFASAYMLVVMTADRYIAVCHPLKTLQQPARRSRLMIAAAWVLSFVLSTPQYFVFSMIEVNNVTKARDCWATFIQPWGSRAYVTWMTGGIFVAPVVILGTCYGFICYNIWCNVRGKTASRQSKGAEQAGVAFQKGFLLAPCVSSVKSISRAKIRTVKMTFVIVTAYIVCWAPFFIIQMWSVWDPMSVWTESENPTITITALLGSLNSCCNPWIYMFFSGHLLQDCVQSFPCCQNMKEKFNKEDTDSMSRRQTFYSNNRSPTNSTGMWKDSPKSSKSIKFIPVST

## Fc1ccc(N2CC3(CC(c4nnc5n4-c4ccc(Cl)cc4CN(C4CC4)C5)C3)C2)nc1 [compound 223]
[1]
  IC50: < 100 nM
[2]
  IC50: < 100 nM
[3]
  Papp A→B at 2 h: > 20 ×10⁻⁶ cm/s
[4]
  IC50: > 1000 nM

## CC1(N2Cc3cc(Cl)ccc3-n3c(nnc3C3CC4(C3)CN(c3ccc(F)cn3)C4)C2)CC1 [Compound No. 255, 8-chloro-1-(2-(5-fluoropyridin-2-yl)-2-azaspiro[3.3]heptan-6-yl)-5-(1-methylcyclopropyl)-5,6-dihydro-4H-benzo[f][1,2,4]triazolo[4,3-a][1,4]diazepine]
[1]
  IC50: < 100 nM
[2]
  IC50: 100 to 500 nM
[3]
  Papp A→B at 2 h: > 20 ×10⁻⁶ cm/s
[4]
  IC50: > 1000 nM
